Eleven compounds from patent publication US11401278B2, “Macrocyclic indole derivatives” (The Broad Institute, Inc., priority 2017, dated 2022) can be followed below.

In one data set the target is BCL-2 (Homo sapiens (Human), UniProt P10415). The data set can be described thus: Protein-protein interaction assay BCL-2/Bad BH3 peptide (BCL-2 assay, TR-FRET). In kind it is binding. The conditions noted are these: His-BCL-2 / Bad BH3 peptide, median. As to the method: Assay 3 Protein-Protein Interaction Assay: BCL-2/Bad BH3 Peptide (BCL-2 Assay)
BCL-2, sequence (P10415 other isoform, or with tags, fused parts or gaps): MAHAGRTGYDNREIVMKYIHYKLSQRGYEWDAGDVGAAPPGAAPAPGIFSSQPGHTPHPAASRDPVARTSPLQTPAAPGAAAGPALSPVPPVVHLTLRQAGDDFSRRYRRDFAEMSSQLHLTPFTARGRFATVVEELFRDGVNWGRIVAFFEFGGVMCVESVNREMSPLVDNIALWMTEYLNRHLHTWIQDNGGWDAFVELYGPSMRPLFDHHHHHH
The dose-dependent inhibition by the compounds described in this invention of the interaction between BCL-2 and the BH3 domain of Bad (both human) was determined using a steady state binding competition assay with time-resolved fluorescence energy transfer (TR-FRET) readout. For that purpose BCL-2 (amino acids 1-211, C-terminal fused to a hexahistidine (6×His) tag (SEQ ID 5) and a synthetic Bad BH3-derived peptide of sequence Biotin-PEG2-PEG2-NLWAAQRYGRELRR-Nle-SDEFVDSFKK-amide (SEQ ID 4) served as protein receptor and tracer ligand respectively. The recombinant BCL-2 protein (expressed in E. coli) was purchased from BPS Bioscience (San Diego, Calif., USA). The Bad BH3-derived peptide can be obtained from e.g. Biosyntan (Berlin, Germany).
In the assay 11 different concentrations of each compound (0.1 nM, 0.33 nM, 1.1 nM, 3.8 nM, 13 nM, 44 nM, 0.15 μM, 0.51 μM, 1.7 μM, 5.9 μM and 20 μM) were typically measured as duplicates in the same microtiter plate. For that, 100-fold concentrated DMSO solutions were prepared by serial dilutions (1:3.4) of a 2 mM stock solution in a clear, 384-well microtiter plate (Greiner Bio-One, Frickenhausen, Germany). From there, 50 nl were transferred in a dark test plate (Greiner Bio-One, Frickenhausen, Germany). The assay was initiated by addition of 2 μl of a 2.5-fold concentrated His-BCL-2 solution (usually for a 1 nM end concentration in 5 μl reaction volume) in aqueous assay buffer [50 mM Tris/HCl pH 7, 100 mM sodium chloride (NaCl), 50 mM potassium fluoride (KF), 0.005% Tween-20, 2 mM DTT, 0.1% bovine gamma globulin (BGG)] to the compounds in the assay plate. This was followed by a 10-minute incubation step at 22° C. for pre-equilibration of the putative complex between His-BCL-2 and the compounds. After that, 3 μl of a 1.67-fold concentrated solution (in assay buffer) consisting of Bad BH3-derived peptide (1 nM end concentration) and TR-FRET detection reagents [1.67 nM anti-His-Eu cryptate and 1.67 nM streptavidin-XL665 (both from Cisbio Bioassays, Codolet, France)], were added.
The mixture was incubated in the dark for one hour at 22° C. and then overnight at 4° C. The formation of BCL-2/Bad complexes was determined by measuring the resonance energy transfer of the anti-His-Eu-cryptate antibody to the streptavidin-XL665 present in the reaction. For that purpose, the fluorescence emission at 620 nm and 665 nm after excitation at 330-350 nm was measured in a TR-FRET measuring instrument, for instance a Rubystar or a Pherastar (both from BMG Lab Technologies, Offenburg, Germany) or a Viewlux (Perkin-Elmer). The ratio of the emission at 665 nm and at 622 nm was used as indicator of the amount of BCL-2/Bad complexes present.
The resulting data (ratio) were normalized, taking 0% inhibition as the mean value of control measurements (usually 32 data points) where all reagents were included. In this case 50 nl DMSO were used instead of compounds. A 100% inhibition corresponded to the mean value of control measurements (usually 32 data points) where all reagents except BCL-2 were included. IC50 values were determined by regression analysis based on a 4 parameter equation (minimum, maximum, IC50, Hill; Y=Max+(Min−Max)/(1+(X/IC50)^HiII) using the Screener Software (Genedata).
A general note: TR-FRET usually uses a lanthanide donor and a delayed reading to cut background.

For data set [1], the system named is SUDHL5. Nature of the data set: Induction of cytotoxicity (Assay 6), SUDHL5. The conditions noted are these: read-out: Cytotox SUDHL5 [M] (median) IC50, CellTiter-Glo, 5 hours, SUDHL5. A general note: In ATP-based viability assays light output follows the ATP content of the culture.
Protocol: Assay 6 Induction of Cytotoxicity Upon Treatment of Cells with Selected Compounds
Therefore, cytotoxicity assays were run in parallel in SUDHL5 and SUDHL10 cells.
The different cell lines were plated in culture medium (RPMI 1640 [GIBCO #22400-089] supplemented with 10% Fetal Bovine Serum) at a density of 3,300 cells in 30 μl/well in a sterile, solid black, flat bottom, polystyrene, TC-treated 384-well microplate (Corning #3571) using Multidrop Combi Reagent Dispenser. As a control, medium without cells was also added to the plate. Cells were incubated in a humidified incubator at 37° C. overnight. On the next day, the cells were treated with compounds (stock solution, 10 mM in DMSO) using the HP D300 Digital Dispenser in a concentration range of 3.3×10e-5 M (33 μM) to 5×10e-9 M (5 nM) in a single-dot curve with at least 16 dilutions and a DMSO concentration of 0.33%. Rim wells were excluded. The cells were incubated for 5 hours in a humidified incubator at 37° C. After this incubation, 30 μl of CellTiter-Glo® Luminescent Cell Viability reagent (Promega, G7573) was added to each well using the Multidrop Combi Reagent Dispenser, followed by 15 minutes incubation on a shaker at room temperature. Finally, luminescence was read at 0.1 ms, with a gain of 3000 using the PHERAstar FS microplate reader (BMG Labtech).
For data set [2], the system named is SUDHL5. The data set can be described thus: Antiproliferation assay (Assay 7), SUDHL5. In kind it is cell-based. The conditions noted are these: CellTiter-Glo, median, read-out: Antiproli SUDHL5 [M] (median) IC50. The method in brief:
(§1)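 Cells were treated with compound for 72 hours at 37° C in a humidified incubator, and viability was then read by CellTiter-Glo luminescence. A parallel reference plate was read at time zero (day 0) in the same way for baseline determination.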

The next data set concerns AMO-1. The data set can be described thus: Antiproliferation assay (Assay 7), AMO-1. In kind it is cell-based. The settings on record: CellTiter-Glo, several values per example, read-out: Antiproli AMO-1 [M] IC50. Put shortly:
as §1

“And” between values parts separate entries of the source, which are not always exact repeats. Identical values can stand only once. Counter-ions that a name gives are not always drawn. Like-named read-outs stand apart in the source and are kept apart here.

In general, IC50 refers to the midpoint of a concentration-inhibition curve. `Cc1c2c(nn1C)CN(C)S(=O)(=O)CCCn1c(C(=O)O)c(CCCOc3cccc4ccccc34)c3ccc(F)c-2c31` (racemic) [Example 26, (rac)-13-Fluoro-8,11,12-trimethyl-1-(3-(naphthalen-1-yloxy)propyl)-5,6,9,11-tetrahydro-4H,8H-pyrazolo[3′,4′:4,5][1]thia[2,8]diazacycloundecino[6,7,8-hi]indole-2-carboxylic acid 7,7-dioxide]: the IC50 on BCL-2 is more than 20 µM; in the data set on SUDHL5 [1] (Homo sapiens, SU-DHL-5, 5 h), 1.8e-06 M; in the data set with SUDHL5 [2] (Homo sapiens, SU-DHL-5, 72 h), 1.4e-06 M; with AMO-1 (Homo sapiens, AMO1, 72 h) it was 7.1e-06 M.
Consider `Cc1c2c(nn1C)CN(C)S(=O)(=O)CCCn1c(C(=O)O)c(CCCOc3cccc4c3CCC4)c3ccc(F)c-2c31` (racemic) [Example 27, (rac)-1-(3-((2,3-Dihydro-1H-inden-4-yl)oxy)propyl)-13-fluoro-8,11,12-trimethyl-5,6,9,11-tetrahydro-4H,8H-pyrazolo[3′,4′:4,5][1]thia[2,8]diazacycloundecino[6,7,8-hi]indole-2-carboxylic acid 7,7-dioxide], for which the IC50 is more than 20 µM against BCL-2; 8.7e-07 M in the data set with SUDHL5 [1] (Homo sapiens, SU-DHL-5, 5 h); 7.8e-07 M in the data set with SUDHL5 [2] (Homo sapiens, SU-DHL-5, 72 h); 2.5e-06 M with AMO-1 (Homo sapiens, AMO1, 72 h).
For `CCc1c2c(nn1C)CN(C)S(=O)(=O)CCCn1c(C(=O)O)c(CCCOc3cccc4c3CCC4)c3ccc(F)c-2c31` (racemic) [Example 32, (rac)-1-(3-((2,3-Dihydro-1H-inden-4-yl)oxy)propyl)-12-ethyl-13-fluoro-8,11-dimethyl-5,6,9,11-tetrahydro-4H,8H-pyrazolo[3′,4′:4,5][1]thia[2,8]diazacycloundecino[6,7,8-hi]indole-2-carboxylic acid 7,7-dioxide], the IC50 on BCL-2 was more than 20 µM; with SUDHL5 [1] (Homo sapiens, SU-DHL-5, 5 h), 7.4e-07 M; with SUDHL5 [2] (Homo sapiens, SU-DHL-5, 72 h) it was 3.9e-07 M; in the data set on AMO-1 (72 hours), 3.9e-06 M; in the data set on AMO-1 (Homo sapiens, AMO1, 72 h) it was 2.4e-06 M.
Take `CCc1c2c(nn1C)CNS(=O)(=O)CCCn1c(C(=O)O)c(CCCOc3cccc4ccccc34)c3cccc-2c31` (racemic) [Example 17, (rac)-12-Ethyl-11-methyl-1-(3-(naphthalen-1-yloxy)propyl)-4,5,6,8,9,11-hexahydropyrazolo[3′,4′:4,5][1,2,8]thiadiazacycloundecino[6,7,8-hi]indole-2-carboxylic acid 7,7-dioxide]: the IC50 against BCL-2 was more than 20 µM; in the data set on SUDHL5 [1] (Homo sapiens, SU-DHL-5, 5 h) it was 9.3e-06 M; in the data set with SUDHL5 [2] (Homo sapiens, SU-DHL-5, 72 h), 4.7e-06 M; in the data set on AMO-1 (Homo sapiens, AMO1, 72 h) it was more than 3.3e-05 M.
`Cc1c2c(nn1C)CN(C)S(=O)(=O)CCCn1c(C(=O)O)c(CCCOc3cccc4c3CCCC4)c3ccc(F)c-2c31` (racemic) [Example 29, (rac)-13-Fluoro-8,11,12-trimethyl-1-(3-((5,6,7,8-tetrahydronaphthalen-1-yl)oxy)propyl)-5,6,9,11-tetrahydro-4H,8H-pyrazolo[3′,4′:4,5][1]thia[2,8]diazacycloundecino[6,7,8-hi]indole-2-carboxylic acid 7,7-dioxide]: the IC50 is more than 20 µM against BCL-2; 1.8e-06 M in the data set with SUDHL5 [1] (Homo sapiens, SU-DHL-5, 5 h); 5e-07 M with SUDHL5 [2] (Homo sapiens, SU-DHL-5, 72 h); 7.1e-06 M in the data set on AMO-1 (Homo sapiens, AMO1, 72 h).
`CCc1c2c(nn1C)CN(CC)S(=O)(=O)CCCn1c(C(=O)O)c(CCCOc3cccc4cc(F)ccc34)c3ccc(Cl)c-2c31` (single isomer, unassigned; enantiomer 1) [Example 57, (+)-4-chloro-3,14-diethyl-7-{3-[(6-fluoronaphthalen-1-yl)oxy]propyl}-2-methyl-13,13-dioxo-10,11,12,13,14,15-hexahydro-2H-13lambda^6-pyrazolo[3′,4′:4,5][1,2,8]thiadiazacycloundecino[6,7,8-hi]indole-8-carboxylic acid N-ethylethanamine Salt (Enantiomer 1)]: the IC50 against BCL-2 was 12 µM; in the data set with SUDHL5 [1], 1.1e-07 M; in the data set on SUDHL5 [2] (72 hours) it was 5.8e-08 M; with AMO-1 (72 hours) it was 1.6e-07 M and 1.3e-07 M.
With `CCc1c2c(nn1C)CN(CCCN1CCCC1=O)S(=O)(=O)CCCn1c(C(=O)O)c(CCCOc3cccc4ccccc34)c3cccc-2c31` (racemic) [Example 13, (rac)-12-Ethyl-11-methyl-1-(3-(naphthalen-1-yloxy)propyl)-8-(3-(2-oxopyrrolidin-1-yl)propyl)-5,6,9,11-tetrahydro-4H,8H-pyrazolo[3′,4′:4,5][1]thia[2,8]diazacycloundecino[6,7,8-hi]indole-2-carboxylic acid 7,7-dioxide], the IC50 is more than 20 µM against BCL-2; 8.2e-06 M in the data set with SUDHL5 [1] (Homo sapiens, SU-DHL-5, 5 h); 4.4e-06 M in the data set on SUDHL5 [2] (Homo sapiens, SU-DHL-5, 72 h); more than 3.3e-05 M in the data set on AMO-1 (Homo sapiens, AMO1, 72 h).
Regarding `CCc1c2c(nn1C)CN(C)S(=O)(=O)CCCn1c(C(=O)O)c(CCCOc3cc(C)c(Cl)c(C)c3)c3ccc(F)c-2c31` (racemic) [Example 33, (rac)-1-(3-(4-Chloro-3,5-dimethylphenoxy)propyl)-12-ethyl-13-fluoro-8,11-dimethyl-5,6,9,11-tetrahydro-4H,8H-pyrazolo[3′,4′:4,5][1]thia[2,8]diazacycloundecino[6,7,8-hi]indole-2-carboxylic acid 7,7-dioxide], the IC50 against BCL-2 is more than 20 µM; with SUDHL5 [1] (Homo sapiens, SU-DHL-5, 5 h), 2.6e-06 M; with AMO-1 (Homo sapiens, AMO1, 72 h), 4.8e-06 M.
`CCc1c2c(nn1C)CN(C)S(=O)(=O)CCCn1c(C(=O)O)c(CCCOc3cccc4c3CCCC4)c3ccc(F)c-2c31` (racemic) [Example 34, (rac)-12-Ethyl-13-fluoro-8,11-dimethyl-1-(3-((5,6,7,8-tetrahydronaphthalen-1-yl)oxy)propyl)-5,6,9,11-tetrahydro-4H,8H-pyrazolo[3′,4′:4,5][1]thia[2,8]diazacycloundecino[6,7,8-hi]indole-2-carboxylic acid 7,7-dioxide]: the IC50 on BCL-2 was more than 20 µM; in the data set with SUDHL5 [1] (Homo sapiens, SU-DHL-5, 5 h), 1.4e-06 M; with SUDHL5 [2] (Homo sapiens, SU-DHL-5, 72 h), 8.2e-07 M.
For `Cc1c2c(nn1C)CN(CCN1CCOCC1)S(=O)(=O)CCCn1c(C(=O)O)c(CCCOc3cccc4ccccc34)c3cccc-2c31` (racemic) [Example 1, (rac)-2,3-Dimethyl-14-[2-(morpholin-4-yl)ethyl]-7-{3-[(naphthalen-1-yl)oxy]propyl}-13,13-dioxo-10,11,12,13,14,15-hexahydro-2H-13λ^6-pyrazolo[3′,4′:4,5][1,2,8]thiadiazacycloundecino-[6,7,8-hi]indole-8-carboxylic acid] the same measures were more than 20 µM, 6.7e-06 M and 7.2e-06 M.
On to `Cc1c2c(nn1C)C(N1CCOCC1)CCN(C)S(=O)(=O)CCCn1c(C(=O)O)c(CCCOc3cccc4cc(F)ccc34)c3ccc(Cl)c-2c31` (racemic) [Example 47, (rac)-15-chloro-1-(3-((6-fluoronaphthalen-1-yl)oxy)propyl)-8,13,14-trimethyl-11-(rac)-morpholino-5,6,9,10,11,13-hexahydro-4H,8H-pyrazolo[3′,4′:6,7][1]thia[2,10]diazacyclotridecino[8,9,10-hi]indole-2-carboxylic acid 7,7-dioxide (Mixture of Stereoisomers)], for which the IC50 against BCL-2 is more than 20 µM; with SUDHL5 [1] (Homo sapiens, SU-DHL-5, 5 h), 3.6e-07 M; with SUDHL5 [2] (Homo sapiens, SU-DHL-5, 72 h), 6.3e-07 M.
